Patent US8017612B2, “Piperazine compound and use thereof as a HCV polymerase inhibitor” (priority 2006, dated 2011)
Counter-ions that a name gives are not always drawn.

How the values were obtained:
[1] = biological target: T1, HCV polymerase (NS5B) type 1a (Hepatitis C virus genotype 1a, UniProt P26664); experiment: Assay of enzyme (HCV polymerase) inhibitory activity, type 1a enzyme; format: biochemical, HCV type 1a (cloned from the blood of patients); conditions: HCV polymerase inhibitory activity (IC50), 1a, type 1a enzyme 1.5 μg/ml, 25° C., 60 min
T1 construct: made in house; host or cells: Escherichia coli (by the 'similar method' of the 1b enzyme)
Method in brief: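 His-tagged NS5B, C-terminal 47 residues deleted, type 1a at 1.5 μg/ml, with 5 μg/ml HCV 3′UTR substrate RNA, 50 μM ATP/GTP/CTP, 2 μM UTP plus [3H]UTP, pH 7.5 Tris, 5 mM MgCl2; 60 min at 25° C. TCA-precipitated RNA counted by scintillation; IC50 from radioactivity with vs. without compound.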

[2] = biological target: T2, HCV polymerase (NS5B) type 1b (Hepatitis C virus genotype 1b, UniProt P26663); experiment: Assay of enzyme (HCV polymerase) inhibitory activity, type 1b enzyme; format: biochemical, HCV BK strain (type 1b); conditions: HCV polymerase inhibitory activity (IC50), 1b, type 1b enzyme 0.5 μg/ml, 25° C., 60 min
T2 construct: a region encoding NS5B (J Virol 1991 March, 65(3), 1105-13, 544 amino acids after deletion of 47 amino acids on the C-terminal); 6xHis (C); made in house; host or cells: Escherichia coli
Method in brief: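 His-tagged, C-terminally truncated NS5B (BK strain, 1b; 0.5 μg/ml) incubated with compound 60 min at 25 °C on 3′UTR-derived substrate RNA (5 μg/ml), 50 μM ATP/GTP/CTP, 2 μM UTP plus [3H]UTP, pH 7.5. Acid-precipitated RNA counted; IC50 from radioactivity with and without compound.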

Compound: CC(=O)N1CCN(S(=O)(=O)c2ccc(C(C)C)cc2)C(C(=O)NCCCc2ccccc2)C1 (stereo not shown) [Example 145, 4-acetyl-1-(4-isopropyl-benzenesulfonyl)-piperazine-2-carboxylic acid (3-phenyl-propyl)-amide]
- IC50 [1]: > 1000 nM
- IC50 [2]: > 1000 nM

Compound: CC(C)c1ccc(CNC(=O)[C@H]2CN(CC(N)=O)CCN2S(=O)(=O)c2ccc(C(F)(F)F)cc2)cc1 [Example 146, (R)-4-carbamoylmethyl-1-(4-trifluoromethyl-benzenesulfonyl)-piperazine-2-carboxylic acid 4-isopropyl-benzylamide]
- IC50 [1]: > 1000 nM
- IC50 [2]: 100 to 1000 nM

Compound: CC(C)c1ccc(CNC(=O)[C@H]2CN(C3CC(=O)NC3=O)CCN2S(=O)(=O)c2ccc(C(F)(F)F)cc2)cc1 (stereo partly drawn) [Example 147, (R)-4-(2,5-dioxo-pyrrolidin-3-yl)-1-(4-trifluoromethyl-benzenesulfonyl)-piperazine-2-carboxylic acid 4-isopropyl-benzylamide]
- IC50 [1]: > 1000 nM
- IC50 [2]: 100 to 1000 nM

Compound: CC(C)c1ccc(CNC(=O)[C@H]2CN(C3=C(c4ccccc4)C(=O)NC3=O)CCN2S(=O)(=O)c2ccc(C(F)(F)F)cc2)cc1 [Example 148, (R)-4-(2,5-dioxo-4-phenyl-2,5-dihydro-1H-pyrrol-3-yl)-1-(4-trifluoromethyl-benzenesulfonyl)-piperazine-2-carboxylic acid 4-isopropyl-benzylamide]
- IC50 [1]: > 1000 nM
- IC50 [2]: > 1000 nM

Compound: CC(=O)N1CCN(S(=O)(=O)c2ccc(C(C)C)cc2)[C@@H](C(=O)NCCc2ccccc2Cl)C1 [Example 149, (R)-4-acetyl-1-(4-isopropyl-benzenesulfonyl)-piperazine-2-carboxylic acid [2-(2-chloro-phenyl)-ethyl]-amide]
- IC50 [1]: > 1000 nM
- IC50 [2]: > 1000 nM

Compound: CC(=O)N1CCN(S(=O)(=O)c2ccc(C(C)C)cc2)[C@@H](C(=O)NCCc2cccc(Cl)c2)C1 [Example 150, (R)-4-acetyl-1-(4-isopropyl-benzenesulfonyl)-piperazine-2-carboxylic acid [2-(3-chloro-phenyl)-ethyl]-amide]
- IC50 [1]: > 1000 nM
- IC50 [2]: > 1000 nM

Compound: CC(=O)N1CCN(S(=O)(=O)c2ccc(C(C)C)cc2)C(C(=O)NCc2ccc(C(F)(F)F)nc2)C1 (stereo not shown) [Example 151, 4-acetyl-1-(4-isopropyl-benzenesulfonyl)-piperazine-2-carboxylic acid (6-trifluoromethyl-pyridin-3-ylmethyl)-amide]
- IC50 [1]: > 1000 nM
- IC50 [2]: > 1000 nM

Compound: CC(=O)N1CCN(S(=O)(=O)c2ccc(C(C)C)cc2)C(C(=O)NCc2ccccn2)C1 (stereo not shown) [Example 152, 4-acetyl-1-(4-isopropyl-benzenesulfonyl)-piperazine-2-carboxylic acid (pyridin-2-ylmethyl)-amide]
- IC50 [1]: > 1000 nM
- IC50 [2]: > 1000 nM

Compound: CN(C)c1ccc(CNC(=O)C2CN(C(=O)Cc3ccccn3)CCN2S(=O)(=O)c2ccc(I)cc2)cc1 (stereo not shown) [Example 153, 1-(4-iodo-benzenesulfonyl)-4-(2-pyridin-2-yl-acetyl)-piperazine-2-carboxylic acid 4-dimethylamino-benzylamide]
- IC50 [1]: > 1000 nM
- IC50 [2]: > 1000 nM

Compound: CN(C)c1ccc(CNC(=O)C2CN(C(=O)Cc3cccnc3)CCN2S(=O)(=O)c2ccc(I)cc2)cc1 (stereo not shown) [Example 154, 1-(4-iodo-benzenesulfonyl)-4-(2-pyridin-3-yl-acetyl)-piperazine-2-carboxylic acid 4-dimethylamino-benzylamide]
- IC50 [1]: 100 to 1000 nM
- IC50 [2]: 100 to 1000 nM

Compound: CC(C)c1ccc(S(=O)(=O)N2CCN(c3nc4c(s3)Cc3ccccc3-4)CC2C(=O)NCc2ccc(C(F)(F)F)cc2)cc1 (stereo not shown) [Example 155, 4-(8H-indeno[1,2-d]thiazol-2-yl)-1-(4-isopropyl-benzenesulfonyl)-piperazine-2-carboxylic acid 4-trifluoromethyl-benzylamide]
- IC50 [1]: > 1000 nM
- IC50 [2]: > 1000 nM

Compound: CC(C)c1ccc(S(=O)(=O)N2CCN(c3nc4c(s3)CCCC4)CC2C(=O)NCc2ccc(C(F)(F)F)cc2)cc1 (stereo not shown) [Example 156, 1-(4-isopropyl-benzenesulfonyl)-4-(4,5,6,7-tetrahydro-benzothiazol-2-yl)-piperazine-2-carboxylic acid 4-trifluoromethyl-benzylamide]
- IC50 [1]: > 1000 nM
- IC50 [2]: > 1000 nM

Compound: CN(C)c1ccc(CNC(=O)[C@H]2CN(C(=O)CN)CCN2S(=O)(=O)c2ccc(I)cc2)cc1 [Example 157, (R)-4-(2-amino-acetyl)-1-(4-iodo-benzenesulfonyl)-piperazine-2-carboxylic acid 4-dimethylamino-benzylamide hydrochloride]
- IC50 [1]: > 1000 nM
- IC50 [2]: > 1000 nM

Compound: CN(C)c1ccc(CNC(=O)[C@H]2CN(C(=O)CN3CCCCC3)CCN2S(=O)(=O)c2ccc(I)cc2)cc1 [Example 158, (R)-1-(4-iodo-benzenesulfonyl)-4-(2-piperidin-1-yl-acetyl)-piperazine-2-carboxylic acid 4-dimethylamino-benzylamide]
- IC50 [1]: > 1000 nM
- IC50 [2]: > 1000 nM

Compound: CN(C)c1ccc(CNC(=O)[C@H]2CN(C(=O)CN3CCCC3)CCN2S(=O)(=O)c2ccc(I)cc2)cc1 [Example 159, (R)-1-(4-iodo-benzenesulfonyl)-4-(2-pyrrolidin-1-yl-acetyl)-piperazine-2-carboxylic acid 4-dimethylamino-benzylamide]
- IC50 [1]: > 1000 nM
- IC50 [2]: > 1000 nM

Compound: CN(C)c1ccc(CNC(=O)[C@H]2CN(C(=O)CN3CCOCC3)CCN2S(=O)(=O)c2ccc(I)cc2)cc1 [Example 160, (R)-1-(4-iodo-benzenesulfonyl)-4-(2-morpholin-4-yl-acetyl)-piperazine-2-carboxylic acid 4-dimethylamino-benzylamide]
- IC50 [1]: 100 to 1000 nM
- IC50 [2]: 100 to 1000 nM

Compound: CC(=O)N1CCN(S(=O)(=O)c2ccc(Cl)cc2Cl)C(C(=O)NCc2ccc(C(F)(F)F)cc2)C1 (stereo not shown) [Example 161, 4-acetyl-1-(2,4-dichloro-benzenesulfonyl)-piperazine-2-carboxylic acid 4-trifluoromethyl-benzylamide]
- IC50 [1]: > 1000 nM
- IC50 [2]: > 1000 nM

Compound: CCC(CC)c1ccc(S(=O)(=O)N2CCN(C(C)=O)CC2C(=O)NCc2ccc(C(F)(F)F)cc2)cc1 (stereo not shown) [Example 162, 4-acetyl-1-[4-(1-ethyl-propyl)-benzenesulfonyl]-piperazine-2-carboxylic acid 4-trifluoromethyl-benzylamide]
- IC50 [1]: > 1000 nM
- IC50 [2]: > 1000 nM

Compound: CCC(CC)c1ccc(CNC(=O)C2CN(C(C)=O)CCN2S(=O)(=O)c2ccc(C(C)C)cc2)cc1 (stereo not shown) [Example 163, 4-acetyl-1-(4-isopropyl-benzenesulfonyl)-piperazine-2-carboxylic acid 4-(1-ethyl-propyl)-benzylamide]
- IC50 [1]: 100 to 1000 nM
- IC50 [2]: 100 to 1000 nM

Compound: CC(=O)N1CCN(S(=O)(=O)c2ccc3ccccc3c2)C(C(=O)NCc2ccc(C(F)(F)F)cc2)C1 (stereo not shown) [Example 164, 4-acetyl-1-(naphthalene-2-sulfonyl)-piperazine-2-carboxylic acid 4-trifluoromethyl-benzylamide]
- IC50 [1]: > 1000 nM
- IC50 [2]: > 1000 nM

Compound: CC(=O)N1CCN(S(=O)(=O)c2cccc(Br)c2)C(C(=O)NCc2ccc(C(F)(F)F)cc2)C1 (stereo not shown) [Example 165, 4-acetyl-1-(3-bromo-benzenesulfonyl)-piperazine-2-carboxylic acid 4-trifluoromethyl-benzylamide]
- IC50 [1]: > 1000 nM
- IC50 [2]: > 1000 nM

Compound: COC(=O)CCc1ccc(S(=O)(=O)N2CCN(C(C)=O)CC2C(=O)NCc2ccc(C(F)(F)F)cc2)cc1 (stereo not shown) [Example 166, 3-{4-[4-acetyl-2-(4-trifluoromethyl-benzylcarbamoyl)-piperazine-1-sulfonyl]-phenyl}-propionic acid methyl ester]
- IC50 [1]: > 1000 nM
- IC50 [2]: > 1000 nM

Compound: CC(=O)N1CCN(S(=O)(=O)c2ccc(C3CCCCC3)cc2)C(C(=O)NCc2ccc(C(F)(F)F)cc2)C1 (stereo not shown) [Example 167, 4-acetyl-1-(4-cyclohexyl-benzenesulfonyl)-piperazine-2-carboxylic acid 4-trifluoromethyl-benzylamide]
- IC50 [1]: > 1000 nM
- IC50 [2]: > 1000 nM

Compound: CC(=O)N1CCN(S(=O)(=O)c2cccc(C(=O)O)c2)C(C(=O)NCc2ccc(C(F)(F)F)cc2)C1 (stereo not shown) [Example 168, 3-[4-acetyl-2-(4-trifluoromethyl-benzylcarbamoyl)-piperazine-1-sulfonyl]-benzoic acid]
- IC50 [1]: > 1000 nM
- IC50 [2]: > 1000 nM

Compound: CC(=O)N1CCN(S(=O)(=O)c2ccc(C(C)C)cc2)[C@@H](C(=O)NCc2ccc(C(C)(C)CO)cc2)C1 [Example 169, (R)-4-acetyl-1-(4-isopropyl-benzenesulfonyl)-piperazine-2-carboxylic acid 4-(2-hydroxy-1,1-dimethyl-ethyl)-benzylamide]
- IC50 [1]: > 1000 nM
- IC50 [2]: > 1000 nM

Compound: CCOC(=O)c1csc(N2CCN(S(=O)(=O)c3ccc(C(C)C)cc3)C(C(=O)NCc3ccc(C(F)(F)F)cc3)C2)n1 (stereo not shown) [Example 170, 2-[4-(4-isopropyl-benzenesulfonyl)-3-(4-trifluoromethyl-benzylcarbamoyl)-piperazin-1-yl]-thiazole-4-carboxylic acid ethyl ester]
- IC50 [1]: > 1000 nM
- IC50 [2]: > 1000 nM
